From patent US12121026B1, “N-[(1-phenyl-4H-1,2,4-triazol-3-yl) carbamothioyl]benzamide as an eco-friendly insecticidal agent against spodoptera littoralis” (KING FAISAL UNIVERSITY, priority 2023, dated 2024)
Values after ≈ are worked out from the molar mass of the structure shown. Where two headings read alike, the source gives them in different places.

Tested on: second and fourth instars larvae of the laboratory strain of cotton leafworm, S. littoralis
Assay: Insecticidal bioassay screening (castor leaf dip)
Format: in vivo
Conditions: for Toxicity index %: 72 hrs, Diflubenzuron's LC50/compound's LC50 x100; for LC90 (mg/L) at 95%: after 72 hrs of treatment; for LC50: Spodoptera littoralis, foliar
Description: Five concentrations (200, 100, 50, 25, 12.5 ppm) were designed for this synthetic compound and the reference Diflubenzuron compound as the dynamic ingredients based on ppm via diluting the commercial formulation.
In this experiment, castor leaves are immersed in each of the previously prepared concentrations of the components for 10 seconds and then left to dry for 60 minutes. Larvae of the second and fourth instars of each checked strain are prepared with treated leaves in gauze-covered glass containers for 72 hrs. An untreated control is made in which leaves are dipped in triton x-100 and distilled water only. Then the preserved leaves were removed & fresh, untreated leaves were provided for 72 hours. Three replicates (10 larvae each) were checked for each concentration. Daily inspection was carried out for all treatments and mortality percentages were recorded 3 days (72 hours) after treatment. The average mortality percentage was corrected employing Abbott's formula. The corrected mortality rate for each of the previously synthesized compounds is statistically calculated according to Finney (1970). Through this rate, the corresponding concentration test lines (LDP lines) are assessed.

[1] = 72 h, read-out: LC50 (mg/L) at 95%, 2nd instar larvae, after 72 hrs of treatment
[2] = 72 h, read-out: LC50 (mg/L) at 95%, 4th instar larvae, after 72 hrs of treatment
[3] = against Spodoptera littoralis under laboratory conditions, instar not stated

Structure (SMILES): O=C(NC(=S)Nc1ncn(-c2ccccc2)n1)c1ccccc1 [Compound 1, N-[(1-phenyl-1H-1,2,4-triazol-3-yl)carbamothioyl]benzamide]
- Toxicity index % (2nd instar larvae): 22.8%
- LC90 (mg/L) at 95% (2nd instar larvae): 1733.6 mg/L (≈ 5360 µM)
- LC90 (mg/L) at 95% (2nd instar larvae, listed as N-[(1-phenyl-4H-1,2,4-triazol-3-yl)carbamothioyl]benzamide): about 1733.6 mg/L
- Toxicity index % (4th instar larvae): 36.7%
- LC90 (mg/L) at 95% (4th instar larvae): 4090.2 mg/L (≈ 12600 µM)
- LC90 (mg/L) at 95% (4th instar larvae, listed as N-[(1-phenyl-4H-1,2,4-triazol-3-yl)carbamothioyl]benzamide): about 4090.2 mg/L
- LC50 [1]: ~198 mg/L (≈ 613 µM)
- LC50 [2]: ~392 mg/L (≈ 1210 µM)
- LC50 [3]: 198 mg/L (≈ 613 µM)

Structure (SMILES): O=C(NC(=O)c1c(F)cccc1F)Nc1ccc(Cl)cc1 [Diflubenzuron, reference compound]
- Toxicity index % (2nd instar larvae): 100%
- LC90 (mg/L) at 95% (2nd instar larvae): 520.0 mg/L (≈ 1670 µM)
- Toxicity index % (4th instar larvae): 100%
- LC90 (mg/L) at 95% (4th instar larvae): 1540.5 mg/L (≈ 4960 µM)
- LC50 [1]: 45.2 mg/L (≈ 145 µM)
- LC50 [2]: 144 mg/L (≈ 464 µM)
- LC50 [3]: 45.2 mg/L (≈ 145 µM)
